# Experimental data from patent US20080188542A1, “NOVEL INDOLE POLYMORPHS” (Wyeth, priority 2007, published 2008).
# Assay: Solubility of polymorph A at room temperature (measurements taken at equilibrium)
# Format: physicochemical
# Conditions: for solubility: thermodynamic from solid
# Protocol: The polymorph A of [1-(4-tert-Butylbenzyl)-5-(3-methylphenyl)-1H-indol-3-yl](oxo)acetic acid of this invention can also be characterized by its solubility rate which is shown in FIG. 5. The solubility rate intrinsic dissolution was conducted in pH 7.5 phosphate buffer medium using USP apparatus 2 (paddle) at 50 rpm. The dissolution rate may be influenced by disk rotation speed and other conditions. The solubility of polymorph A of [1-(4-tert-Butylbenzyl)-5-(3- methylphenyl)-1H-indol-3-yl](oxo)acetic acid has been determined in a number of solvents and the results are listed in Table 5. The solubilities listed in Table 5 are based on measurements taken at equilibrium.
compound,measurement,setting,value
"Cc1cccc(-c2ccc3c(c2)c(C(=O)C(=O)O)cn3Cc2ccc(C(C)(C)C)cc2)c1 [Polymorph A, [1-(4-tert-Butylbenzyl)-5-(3-methylphenyl)1H-indol-3-yl](oxo)acetic acid]",solubility,"2% polysorbate 80/0.5% methylcellulose, aqueous with cosolvent or surfactant or cyclodextrin, 2% Polysorbate80/0.5% Methylcellulose",1.09 mg/mL
same,Solubility of Polymorph A,Capryol 90,73.8 mg/g
same,Solubility of Polymorph A,Cremophore EL,290 mg/g
same,Solubility of Polymorph A,Labrasol,>160 mg/g
same,Solubility of Polymorph A,PEG 200,>100 mg/g
same,Solubility of Polymorph A,PEG 400,>100 mg/g
same,Solubility of Polymorph A,Phosal 53 MCT,311 mg/g
same,Solubility of Polymorph A,Polysorbate 80,>200 mg/g
same,solubility,"organic solvent or mixture, Acetone",277 mg/mL
same,solubility,"organic solvent or mixture, DMSO",> 500 mg/mL
same,solubility,"organic solvent or mixture, Ethanol",12.2 mg/mL
same,solubility,"organic solvent or mixture, Propylene Carbonate",103 mg/mL
same,solubility,"organic solvent or mixture, Propylene Glycol",7.1 mg/mL
same,solubility,Deionized Water,0.024 mg/mL
